Data published in ChEMBL document CHEMBL4130496, “Anticancer properties of 4-thiazolidinone derivatives depend on peroxisome proliferator-activated receptor gamma (PPARγ)” (2017).
The source made the active and inactive calls. The calls are words filed in the database; no cut-off is given here.

What was measured:
[1] = tested on: SCC-15; assay: Downregulation of PPARbeta mRNA expression in human SCC15 cells at 10 uM after 4 hrs by RTqPCR analysis relative to control; assay type: functional
[2] = tested on: SCC-15; assay: Downregulation of PPARgamma mRNA expression in human SCC15 cells at 50 uM after 4 hrs by RTqPCR analysis relative to control; assay type: functional
[3] = tested on: SCC-15; assay: Induction of apoptosis in human SCC15 cells assessed as increase in caspase 3 activity at 50 uM after 24 hrs relative to control; assay type: functional
[4] = tested on: SCC-15; assay: Downregulation of PPARalpha mRNA expression in human SCC15 cells at 10 uM after 4 hrs by RTqPCR analysis relative to control; assay type: functional
[5] = tested on: SCC-15; assay: Induction of apoptosis in human SCC15 cells transfected with PPARalpha siRNA assessed as increase in caspase 3 activity at 50 uM after 24 hrs relative to control; assay type: functional, cell-based
[6] = tested on: SCC-15; assay: Induction of apoptosis in human SCC15 cells transfected with PPARgamma siRNA assessed as increase in caspase 3 activity at 50 uM after 24 hrs relative to control; assay type: functional
[7] = tested on: SCC-15; assay: Downregulation of PPARgamma mRNA expression in human SCC15 cells at 10 uM after 4 hrs by RTqPCR analysis relative to control; assay type: functional
[8] = tested on: SCC-15; assay: Cytotoxicity against human SCC15 cells assessed as reduction in cell viability at 50 uM after 24 hrs by resazurin reduction assay relative to control; assay type: functional
[9] = tested on: SCC-15; assay: Cytotoxicity against human SCC15 cells transfected with PPARgamma siRNA assessed as reduction in cell viability at 50 uM after 24 hrs by resazurin reduction assay; assay type: functional
[10] = tested on: SCC-15; assay: Downregulation of PPARalpha mRNA expression in human SCC15 cells at 50 uM after 4 hrs by RTqPCR analysis relative to control; assay type: functional
[11] = tested on: SCC-15; assay: Cytotoxicity against human SCC15 cells transfected with PPARgamma siRNA assessed as increase in LDH release at 50 uM after 24 hrs by colorimetric assay relative to control; assay type: functional, cell-based
[12] = tested on: SCC-15; assay: Downregulation of PPARbeta mRNA expression in human SCC15 cells at 50 uM after 4 hrs by RTqPCR analysis relative to control; assay type: functional
[13] = tested on: SCC-15; assay: Cytotoxicity against human SCC15 cells transfected with PPARalpha siRNA assessed as increase in LDH release at 50 uM after 24 hrs by colorimetric assay; assay type: functional, cell-based
[14] = tested on: SCC-15; assay: Cytotoxicity against human SCC15 cells assessed as increase in LDH release at 50 uM after 24 hrs by colorimetric assay relative to […]; assay type: functional
[15] = tested on: SCC-15; assay: Cytotoxicity against human SCC15 cells transfected with PPARbeta siRNA assessed as increase in LDH release at 50 uM after 24 hrs by colorimetric assay relative to control; assay type: functional, cell-based
[16] = tested on: SCC-15; assay: Cytotoxicity against human SCC15 cells transfected with PPARalpha siRNA assessed as reduction in cell viability at 50 uM after 24 hrs by resazurin reduction assay; assay type: functional, cell-based
[17] = tested on: SCC-15; assay: Cytotoxicity against human SCC15 cells transfected with PPARbeta siRNA assessed as reduction in cell viability at 50 uM after 24 hrs by resazurin reduction assay; assay type: functional, cell-based
[18] = tested on: SCC-15; assay: Induction of apoptosis in human SCC15 cells transfected with PPARbeta siRNA assessed as increase in caspase 3 activity at 50 uM after 24 hrs relative to control; assay type: functional

SMILES: O=C1c2ccccc2C(=O)c2sc3nc(=O)sc-3cc21
- Activity [1]: 16.62%
- Activity [2]: 14.34%
- Activity [3]: 43.55%
- Activity [4]: 54.37%
- Activity [5]: Active
- Activity [6]: inactive
- Activity [7]: 45.91%
- Activity [8]: 18.32%
- Activity [9]: inactive
- Activity [10]: 26.99%

SMILES: CN(C)c1ccc(C2CC(c3ccccc3)=NN2C2=NC(=O)/C(=C3/C(=O)Nc4ccccc43)S2)cc1 (stereo not given)
- Activity [1]: 31.43%
- Activity [11]: inactive
- Activity [2]: 15.27%
- Activity [3]: 177.42%
- Activity [12]: 31.92%
- Activity [13]: Active
- Activity [4]: 28.26%
- Activity [5]: Active
- Activity [6]: inactive
- Activity [7]: 24.79%
- Activity [8]: 13.53%
- Activity [14]: 44.97%
- Activity [9]: inactive
- Activity [15]: inactive
- Activity [10]: 18.66%

SMILES: O=C(Cn1c2c(sc1=O)[C@@H]1c3ccccc3OC[C@H]1CS2)Nc1ccc(Cl)c(Cl)c1
- Activity [1]: 31.98%
- Activity [11]: inactive
- Activity [13]: Active
- Activity [4]: 20.63%
- Activity [7]: 22.96%
- Activity [8]: 12.08%
- Activity [14]: 22.95%
- Activity [9]: inactive

SMILES: CN(CCOc1ccc(CC2SC(=O)NC2=O)cc1)c1ccccn1 (stereo not given) [ROSIGLITAZONE]
- Activity [16]: Active
- Activity [17]: Active
- Activity [7]: 25.54%
- Activity [8]: inactive

SMILES: CCc1ccc(CCOc2ccc(CC3SC(=O)NC3=O)cc2)nc1 (stereo not given) [PIOGLITAZONE]
- Activity [16]: Active
- Activity [2]: 17.33%
- Activity [3]: inactive
- Activity [17]: Active
- Activity [6]: 43.03%
- Activity [8]: inactive
- Activity [9]: 31.42%
- Activity [18]: >27.52%
